Assay [1] can be described thus: miR-122 upregulation in Huh7 hepatoma cells – cell-based, qRT-PCR, dry powder, orthogonal assay, dose response (AID 720726). As to conditions: Huh7 miR-122 levels, qRT-PCR, 48 h. In general terms: In qPCR the cycle at which signal appears reflects the starting amount.
Assay [2] concerns Huh7 miR-122 levels, qRT-PCR, 48 h. The description is as above.

Each structure is given as a SMILES string. Activity calls are given as the source filed them.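 The calls were made as follows: active = fitted dose curve rising to 40 percent activity within the top usable dose; inconclusive = flat curve between 30 and 70 percent, or poor fit; inactive = the rest, including signal moving the wrong way.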

In the case of `CN1C(=O)c2cc(NC(=O)c3cccc(F)c3)ccc2OC[C@@H]2O[C@@H](CC(=O)O)CC[C@H]21`, in assay [1] (at 30 µM (top of the series)), the miR-122 fold change was 0.927 fold change (inactive). Take `COc1ccc(-c2cnc3c(c2)C(=O)N([C@@H](C)CO)C[C@H](C)[C@H](CN(C)S(=O)(=O)c2ccc(OC)cc2)O3)cc1`: the miR-122 fold change in assay [1] (at 35 µM (top of the series)) is 1.26 fold change (inactive). For the molecule `OCc1ccc(-c2nn(Cc3ccccc3)c3ccccc23)o1`, the miR-122 fold change in assay [1] (at 35 µM (top of the series)) is 0.428 fold change (inactive). The same measure, in the same setting: the value for `O=C(CN=C1NS(=O)(=O)c2ccccc21)Nc1ccccc1N1CCCCCC1` was 1.09 fold change (inactive); that for `C[C@H]1CN([C@@H](C)CO)C(=O)c2cc(C#Cc3ccccc3F)cnc2O[C@@H]1CN(C)C(=O)C1CCCCC1` was 0.164 fold change (inactive).

On to `CO[C@@H]1CN(C)C(=O)c2cc(NS(=O)(=O)c3ccc(Oc4ccccc4)cc3)ccc2OC[C@H](C)NC[C@@H]1C`, for which, in assay [1] (at 35 µM (top of the series)), the miR-122 fold change is 0.882 fold change (inactive).

With `Cc1cc(C(C)(C)C)cc(S(=O)(=O)NCCc2ccncc2)c1C`, the miR-122 fold change in assay [1] (at 35 µM (top of the series)) was 1.04 fold change (inactive). Same read-out and setting: the value for `COCC(=O)N(C)C[C@H]1Oc2cc(-c3ccccc3F)ccc2S(=O)(=O)N([C@@H](C)CO)C[C@H]1C` was 0.823 fold change (inactive); that for `CCN(CC)C(=O)c1cccc(NC(=O)c2ccc(Cl)cc2Cl)c1` was 0.931 fold change (inactive).

For the molecule `COCC(=O)N(C)C[C@H]1Oc2cc(-c3ccc(C#N)cc3)ccc2S(=O)(=O)N([C@@H](C)CO)C[C@H]1C`, the miR-122 fold change in assay [1] (at 35 µM (top of the series)) is 1.17 fold change (inactive).

Turning to `COc1cccc(C(=O)Nc2ccc3c(c2)C(=O)N(C)C[C@@H](OC)[C@@H](C)CN[C@@H](C)CO3)c1`, the miR-122 fold change in assay [1] (at 35 µM (top of the series)) was 1.15 fold change (inactive).

`CN1C(=O)c2cc(NC(=O)c3cccc(F)c3)ccc2OC[C@@H]2O[C@H](CC(=O)O)CC[C@@H]21`: the miR-122 fold change in assay [1] (at 35 µM (top of the series)) was 0.92 fold change (inactive).

Take `C[C@H]1CN([C@@H](C)CO)S(=O)(=O)c2ccc(C#Cc3ccncc3)cc2O[C@H]1CN(C)C(=O)C1CCOCC1`: the miR-122 fold change in assay [1] (at 35 µM (top of the series)) is 0.373 fold change (inactive). As to `Cc1cccc(NC(=O)Nc2ccc3c(c2)C(=O)N(C)[C@@H]2CC[C@H](CC(=O)NCc4ccccc4Cl)O[C@H]2CO3)c1`, the AC40 in assay [2] was 8.38 µM. On to `CO[C@@H]1CN(C)C(=O)c2cc(NC(=O)c3ccc4c(c3)OCO4)ccc2OC[C@H](C)NC[C@@H]1C`, for which the miR-122 fold change in assay [1] (at 35 µM (top of the series)) is 1.02 fold change (inactive). Still for that read-out and setting: to `CCn1cc(C(=O)O)c(=O)c2cc(F)c(N3CCNCC3)nc21` belongs 0.972 fold change (inactive). Same read-out and setting: the value for `COCC(=O)N(C)C[C@H]1Oc2cc(-c3ccc(C#N)cc3)ccc2S(=O)(=O)N([C@H](C)CO)C[C@H]1C` was 0.895 fold change (inactive); that for `C[C@@H]1CN([C@H](C)CO)S(=O)(=O)c2ccc(/C=C/c3ccccc3)cc2O[C@@H]1CN(C)C(=O)c1cccnc1` was 1.11 fold change (inactive). On the same count and under the same terms, to `C[C@H]1CN([C@@H](C)CO)C(=O)c2cc(-c3ccc(C#N)cc3)cnc2O[C@H]1CN(C)C(=O)Nc1ccc(C(F)(F)F)cc1` belongs 0.749 fold change (inactive); to `C[C@@H]1CN([C@H](C)CO)S(=O)(=O)c2ccc(C#Cc3ccncc3)cc2O[C@H]1CN(C)C(=O)C1CCOCC1`, 0.486 fold change (inactive); to `CN1C(=O)c2cc(NC(=O)c3cccc(F)c3)ccc2OC[C@H]2O[C@H](CC(=O)O)CC[C@@H]21`, 0.869 fold change (inactive).

With `CN(C)CCN1C(=O)c2cccc3cc(N)cc(c23)C1=O`, in assay [1] (at 35 µM (top of the series)), the miR-122 fold change was 0.364 fold change (inactive). Still for that read-out and setting: the value for `COc1cccc(-c2ccc3c(c2)O[C@H](CN(C)C(=O)C2CCOCC2)[C@H](C)CN([C@@H](C)CO)S3(=O)=O)c1` was 0.896 fold change (inactive). The same measure, in the same setting: to `COc1ccc(S(=O)(=O)N(C)C[C@@H]2Oc3ncc(/C=C/c4ccccc4)cc3C(=O)N([C@@H](C)CO)C[C@@H]2C)cc1` belongs 0.9 fold change (inactive); to `CCOC(=O)N1CCC(NC(=O)c2ccc3c(c2)sc2nc(-c4ccccc4)cn23)CC1`, 0.356 fold change (inactive). Take `O=C(c1ccc(CN2CCOCC2)cc1)N1CCc2ccccc21`: the miR-122 fold change in assay [1] (at 35 µM (top of the series)) was 1 fold change (inactive).

`O=C(CNCCC1=CCCCC1)Nc1ccccc1N1CCCCCC1`: in assay [1] (at 35 µM (top of the series)), the miR-122 fold change was 0.489 fold change (inactive).

For `CN1C(=O)c2cc(NC(=O)c3cccc(F)c3)ccc2OC[C@H]2O[C@H](CC(=O)O)CC[C@H]21`, the miR-122 fold change in assay [1] (at 35 µM (top of the series)) is 0.909 fold change (inactive). For `CNC[C@@H]1Oc2cc(C#CC3CCCCC3)ccc2S(=O)(=O)N([C@@H](C)CO)C[C@@H]1C`, the miR-122 fold change in assay [1] (at 35 µM (top of the series)) was 1.07 fold change (inactive).

Consider `CN1C(=O)c2cc(NC(=O)c3cccc(F)c3)ccc2OC[C@@H]2O[C@H](CC(=O)O)CC[C@H]21`, for which the miR-122 fold change in assay [1] (at 35 µM (top of the series)) is 0.958 fold change (inactive).

With `O=C(NCc1ccccc1Cl)c1ccc(CNc2c(NC3CCCCC3)c(=O)c2=O)cc1`, the miR-122 fold change in assay [1] (at 35 µM (top of the series)) is 0.171 fold change (inactive).

The values above are taken from PubChem BioAssay AID720726 (Broad Institute, 2013).
